According to publication PMC6834593, “Chemical activation of divergent protein tyrosine phosphatase domains with cyanine-based biarsenicals” (Scientific Reports, 2019):

Key:
Assay type in all cases: biochemical
[1] = biological target: T1, actSHP2 (Src-homology-2-domain-containing PTP 2) (Homo sapiens, UniProt Q06124, C333P/V428C/S430C/D431C); assay: pNPP phosphatase assay (activation at […])
T1 construct: gene PTPN11; His6-tagged catalytic domain
T1 sequence (Q06124 247-517 C333P/V428C/S430C/D431C limits assumed): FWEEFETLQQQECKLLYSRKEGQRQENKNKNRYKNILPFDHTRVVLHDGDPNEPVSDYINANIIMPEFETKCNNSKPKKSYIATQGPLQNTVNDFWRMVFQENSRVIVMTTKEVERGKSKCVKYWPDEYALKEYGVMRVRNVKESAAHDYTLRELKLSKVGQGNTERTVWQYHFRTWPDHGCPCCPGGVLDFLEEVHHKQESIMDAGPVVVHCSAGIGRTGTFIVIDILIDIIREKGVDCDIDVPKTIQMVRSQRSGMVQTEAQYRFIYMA

[2] = biological target: T2, actPTPκ (PTPkappa) (Homo sapiens, UniProt Q15262, H1056C/V1053C/Y1055C); assay: pNPP phosphatase assay (activation, dose dependence); also in-gel fluorescence of labelled protein in lysate
T2 construct: gene PTPRK; His6-tagged catalytic domain, residues 870–1154
T2 sequence (Q15262 869-1153 V1053C/Y1055C/H1056C): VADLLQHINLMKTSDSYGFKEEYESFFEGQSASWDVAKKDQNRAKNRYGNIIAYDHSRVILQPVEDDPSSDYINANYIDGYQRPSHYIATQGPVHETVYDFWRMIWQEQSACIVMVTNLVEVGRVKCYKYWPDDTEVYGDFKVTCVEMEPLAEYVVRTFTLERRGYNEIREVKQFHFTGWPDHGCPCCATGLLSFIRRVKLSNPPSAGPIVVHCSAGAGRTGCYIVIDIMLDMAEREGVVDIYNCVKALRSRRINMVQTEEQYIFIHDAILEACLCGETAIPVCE

[3] = biological target: T3, actHePTP (hematopoietic PTP) (Homo sapiens, UniProt P35236, E262C/S263C/T260C); assay: as above
T3 construct: gene PTPN7; His6-tagged catalytic domain, residues 65–360
T3 sequence (P35236 65-360 T260C/E262C/S263C): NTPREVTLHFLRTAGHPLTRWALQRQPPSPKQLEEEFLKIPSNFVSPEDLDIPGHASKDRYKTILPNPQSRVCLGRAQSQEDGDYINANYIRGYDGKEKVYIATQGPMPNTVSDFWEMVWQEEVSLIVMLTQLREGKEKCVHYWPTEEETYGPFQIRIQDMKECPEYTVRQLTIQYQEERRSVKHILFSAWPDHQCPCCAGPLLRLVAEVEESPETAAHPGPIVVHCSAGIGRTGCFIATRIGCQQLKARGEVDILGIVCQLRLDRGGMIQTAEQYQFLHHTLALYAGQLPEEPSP

Q: With `CC1(C)C(/C=C/C=C/C=C2/N(CCCCS(=O)(=O)O)c3ccc([As]4SCCS4)cc3C2(C)C)=[N+](CCCCS(=O)(=O)[O-])c2ccc([As]3SCCS3)cc21` [AsCy5] as the compound, how does the “pNPP phosphatase assay (activation at 1 μM)” value [1] read?
A: Both cyanine-derived biarsenicals, AsCy3 and AsCy5, were more successful in activating actSHP2 than FlAsH and ReAsH

Q: What about the AC50 [2] of the same compound?
A: ~600 nM

Q: And the AC50 [3]?
A: ~200 nM
